In brackets after ≈: the same amount, converted by molar mass. Read-outs that look alike come from different tables or passages of the source.
Experiments:
[1] = target: single-chain tethered dimer of HIV protease (Human immunodeficiency virus 1, UniProt P04585); assay: biochemical; format: biochemical; design: fused on or other part: A second copy of the same protease unit is joined to the first by a short peptide tether, giving one polypeptide
HIV-1 (RF) in MT-2 cells = assay: microbe, parasite or virus in culture; format: cell-based
Method in brief: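 Read-out: gag and pol viral RNA captured by 5′-biotinylated oligonucleotides on streptavidin-coated wells, detected with alkaline phosphatase-linked reporter oligonucleotides, calibrated against BH10 in vitro transcripts. Virus stocks (RF, MN, IIIB) come from H9 cultures; MT-2 host cells kept in RPMI 1640, 5% FCS.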

[2] = read-out: HPLC K1, Table 2d, class symbols
[3] = Human immunodeficiency virus 1, MT2, 48 h, Table 2d, class symbols, read-out: IC90
[4] = Table 2d, class symbols, read-out: HPLC K1
[5] = read-out: HPLC K1, Table 2d, HIV protease inhibition, HPLC method
[6] = Human immunodeficiency virus 1, MT2, 48 h, Table 2d, HIV RNA assay, read-out: IC90
[7] = Human immunodeficiency virus 1, MT2, Table 2i, read-out: IC90

`Nc1cccc(CN2C(=O)N(CC3CC3)C(Cc3ccccc3)C(O)C(O)C2Cc2ccccc2)c1` (centres unmarked) [15G] was tested, and the Ki [1, 2] was under 0.01 µM and the IC90 (HIV-1 (RF) in MT-2 cells; [3]) was under 10 µg/mL.
With `O=C1N(Cc2cnccc2Cl)C(Cc2ccccc2)C(O)C(O)C(Cc2ccccc2)N1Cc1cnccc1Cl` (centres unmarked) [Example 13Z] the Ki [1, 4] was 0.01 to 1 µM and the IC90 (HIV-1 (RF) in MT-2 cells; Table 2d, class symbols) was “+++ (+++=<10 μg/mL)”.
`O=C1N(Cc2ccc(CO)cc2)C(Cc2ccccc2)C(O)C(O)C(Cc2ccccc2)N1Cc1ccc(CO)cc1` (centres unmarked) [Example 13S] was tested, and the Ki [1, 2] was 0.01 to 1 µM and the IC90 (HIV-1 (RF) in MT-2 cells; Table 2d, class symbols) was “++ (++=10 to 100 μg/mL)”.
For `NNC(=O)c1ccc(CN2C(=O)N(Cc3cccc(C(=O)NN)c3)C(Cc3ccccc3)C(O)C(O)C2Cc2ccccc2)cc1` (centres unmarked) [10N], the Ki [1, 4] was under 0.01 µM and the IC90 (HIV-1 (RF) in MT-2 cells; Table 2d, class symbols) was “+++ (+++=<10 μg/mL)”.
`Cl.Cl.O=C(Nc1cccc(CN2C(=O)N(Cc3cccc(NC(=O)c4ccncc4)c3)C(Cc3ccccc3)C(O)C(O)C2Cc2ccccc2)c1)c1ccncc1` (centres unmarked) [Example 15AC] was tested, and the Ki ([1]; Table 2d, HIV protease inhibition, HPLC method, read-out: HPLC K1) was under 0.01 µM and the IC90 (HIV-1 (RF) in MT-2 cells; Table 2d, HIV RNA assay) was “+++ (+++=<10 μg/mL)”.
For `O=S1(=O)N(CCCCCO)C(Cc2ccccc2)C(O)C(O)C(Cc2ccccc2)N1Cc1ccc2ccccc2c1` (centres unmarked) [23AF], the Ki ([1]; Table 2m, read-out: HPLC Ki) was under 0.01 µM and the IC90 (HIV-1 (RF) in MT-2 cells; Table 2m) was “+++ (+++=<10 μg/mL)”.
For `CC(=O)Oc1ccc(CN2C(=O)N(Cc3ccc(OC(C)=O)cc3)C(Cc3ccccc3)C(O)C(O)C2Cc2ccccc2)cc1` (centres unmarked) [10L], the Ki [1, 2] was 0.01 to 1 µM and the IC90 (HIV-1 (RF) in MT-2 cells; [3]) was under 10 µg/mL.
Molecule `O=C(c1cccc(CN2C(=O)N(Cc3cccc(C(=O)c4cc[nH]n4)c3)C(Cc3ccccc3)C(O)C(O)C2Cc2ccccc2)c1)c1cc[nH]n1` (centres unmarked) [Example 15YN] has a Ki [1, 5] of under 0.01 µM and an IC90 (HIV-1 (RF) in MT-2 cells; [6]) of under 10 µg/mL.
For `N#Cc1cccc(CN2C(=O)N(Cc3ccc(O)cc3)C(Cc3ccccc3)C(O)C(O)C2Cc2ccccc2)c1` (centres unmarked) [Example 15AQ], the Ki [1, 5] was under 0.01 µM and the IC90 (HIV-1 (RF) in MT-2 cells; [6]) was under 10 µg/mL.
`O=C1N(Cc2cccc(O)c2)C(Cc2cccc(O)c2)C(O)C(O)C(Cc2cccc(O)c2)N1Cc1cccc(O)c1` (centres unmarked) [20AQ] was tested, and the Ki ([1]; Table 2i, read-out: HPLC Ki) was under 0.01 µM and the IC90 (HIV-1 (RF) in MT-2 cells; Table 2i) was “+++ (+++=<10 μg/mL)”.
For `CNCC(=O)NCCCCCN1C(=O)N(CCCCCNC(=O)CNC)C(Cc2ccccc2)C(O)C(O)C1Cc1ccccc1.Cl.Cl` (centres unmarked) [15EZ], the Ki ([1]; HIV protease inhibition, HPLC method, Table 2d, read-out: HPLC K1) was 0.01 to 1 µM and the IC90 (HIV-1 (RF) in MT-2 cells; HIV RNA assay, HIV-1 infected MT-2 cells, Table 2d) was “++/+ (The ++/+ is used in the cases where an IC90 was determined to be >50 μg/mL)”.
With `CCC(CN1C(=O)N(CC(CC)=NO)C(Cc2ccccc2)C(O)C(O)C1Cc1ccccc1)=NO` (centres unmarked) [Example 15VP] the Ki [1, 2] was 0.01 to 1 µM and the IC90 (HIV-1 (RF) in MT-2 cells; [3]) was 10 to 100 µg/mL (≈ 20.1 to 201 µM).
`NC(=O)COc1cccc(CN2C(=O)N(Cc3cccc(OCC(N)=O)c3)C(Cc3ccccc3)C(O)C(O)C2Cc2ccccc2)c1` (centres unmarked) [10H] was tested, and the Ki [1, 4] was under 0.01 µM and the IC90 (HIV-1 (RF) in MT-2 cells; Table 2d, class symbols) was “+++ (+++=<10 μg/mL)”.
In the case of `O=S1(=O)N(Cc2ccccc2)C(Cc2ccccc2)C2OC2C(Cc2ccccc2)N1Cc1ccccc1` (centres unmarked) [31F], the Ki ([1]; Table 2u (second printing), HPLC method, read-out: K1 (HPLC)) is reported as over 1 µM, the Ki ([1]; Table 2u, HPLC method, read-out: K1 (HPLC)) is reported as over 1 µM and the IC90 (HIV-1 (RF) in MT-2 cells; Table 2u) is reported as “++/+ (The ++/+ is used in the cases where an IC90 was determined to be >50 μg/mL)”. For the same molecule, the IC90 (HIV-1 (RF) in MT-2 cells; Table 2u (second printing)) was “++/+ (The ++/+ is used in the cases where an IC90 was determined to be >50 μg/mL)”.
Molecule `Nc1cccc(CN2C(=O)N(Cc3ccc(CO)cc3)C(Cc3ccccc3)C(O)C(O)C2Cc2ccccc2)c1` (centres unmarked) [15A] has a Ki [1, 2] of under 0.01 µM and an IC90 (HIV-1 (RF) in MT-2 cells; [3]) of under 10 µg/mL.
`CC(=NO)c1cccc(CN2C(=O)N(Cc3cccc(C(C)=NO)c3)C(Cc3ccc(F)cc3)C(O)C(O)C2Cc2ccc(F)cc2)c1` (centres unmarked) [20U] showed a Ki ([1]; read-out: HPLC Ki, Table 2i) of under 0.01 µM and an IC90 (HIV-1 (RF) in MT-2 cells; [7]) of under 10 µg/mL.
`O=S1(=O)N(Cc2cccc(OCc3ccccc3)c2)C(Cc2ccccc2)C(O)C(O)C(Cc2ccccc2)N1Cc1cccc(OCc2ccccc2)c1` (centres unmarked) [Example 23C] was tested, and the Ki ([1]; read-out: HPLC Ki, Table 2m) was 0.01 to 1 µM and the IC90 (HIV-1 (RF) in MT-2 cells; Human immunodeficiency virus 1, MT2, Table 2m, read-out: IC90) was 10 to 100 µg/mL (≈ 13.2 to 132 µM).
In the case of `O=C1N(CCCCCCCO)C(Cc2ccccc2)C(O)C(O)C(Cc2ccccc2)N1CCCCCCCO` (centres unmarked) [Example 12P], the Ki [1, 2] is reported as 0.01 to 1 µM and the IC90 (HIV-1 (RF) in MT-2 cells; [3]) is reported as under 10 µg/mL.
With `Nc1ccc(CC2C(O)C(O)C(Cc3ccccc3N)N(CC3CC3)C(=O)N2CC2CC2)cc1` (centres unmarked) [Example 20E] the Ki ([1]; read-out: HPLC Ki, Table 2i) was under 0.01 µM and the IC90 (HIV-1 (RF) in MT-2 cells; [7]) was under 10 µg/mL.
In the case of `O=C(COCc1ccccc1)c1cccc(CN2C(=O)N(Cc3cccc(C(=O)COCc4ccccc4)c3)C(Cc3ccccc3)C(O)C(O)C2Cc2ccccc2)c1` (centres unmarked) [Example 15BI], the Ki [1, 5] is reported as under 0.01 µM and the IC90 (HIV-1 (RF) in MT-2 cells; [6]) is reported as under 10 µg/mL.
`O=C1N(Cc2ccc(C(O)CO)cc2)C(Cc2ccccc2)C(O)C(O)C(Cc2ccccc2)N1Cc1ccc(C(O)CO)cc1` (centres unmarked) [11L] showed a Ki [1, 2] of under 0.01 µM and an IC90 (HIV-1 (RF) in MT-2 cells; [3]) of under 10 µg/mL.
Work on `NCCCCCCN1C(=O)N(CCCCCCN)C(Cc2ccccc2)C(O)C(O)C1Cc1ccccc1` (centres unmarked) [Example 12A] yielded a Ki [1, 2] of over 1 µM and an IC90 (HIV-1 (RF) in MT-2 cells; [3]) of over 100 µg/mL.
`NCCCCCCN1C(=O)N(Cc2ccccc2)C(Cc2ccccc2)C(O)C(O)C1Cc1ccccc1` (centres unmarked) [Example 12B] gave a Ki [1, 2] of 0.01 to 1 µM and an IC90 (HIV-1 (RF) in MT-2 cells; [3]) of over 100 µg/mL.
For `CC(O)c1cccc(CN2C(=O)N(Cc3cccc(C(C)O)c3)C(Cc3ccccc3)C(O)C(O)C2Cc2ccccc2)c1` (centres unmarked) [Example 9H], the Ki [1, 2] was 0.01 to 1 µM and the IC90 (HIV-1 (RF) in MT-2 cells; [3]) was under 10 µg/mL.
